The text below walks through data of ChEMBL document CHEMBL3856204, “Chiral 6-aryl-furo[2,3-d]pyrimidin-4-amines as EGFR inhibitors” (Eur J Med Chem, 2016).

Test [1] concerns the target Ephrin type-A receptor 1 (Homo sapiens) (UniProt P21709). Description: Inhibition of GST tagged recombinant human EPHA1 cytoplasmic domain (568 to 976 residues) expressed in baculovirus at 500 nM by Z'-LYTE assay.
The target of test [2] is Tyrosine-protein kinase JAK2 (Homo sapiens) (UniProt O60674). Description: Inhibition of GST tagged recombinant human JAK2 (809 to 1153 + 9 residues) expressed in baculovirus at 500 nM by Z'-LYTE assay.
Test [3] has as its target Tyrosine-protein kinase CSK (Homo sapiens) (UniProt P41240). Description: Inhibition of His tagged recombinant full length human CSK expressed in Escherichia coli at 500 nM by Z'-LYTE assay.
Test [4] has as its target Mast/stem cell growth factor receptor Kit (Homo sapiens) (UniProt P10721). Description: Inhibition of His tagged recombinant human KIT cytoplasmic domain (544 to 976 residues) expressed in baculovirus at 500 nM by Z'-LYTE assay.
Test [5] has as its target Epidermal growth factor receptor (Homo sapiens, UniProt P00533). Kind of test: Inhibition of recombinant human GST-tagged EGFR cytoplasmic domain (668 to 1210 residues) expressed in baculovirus by Z'-LYTE assay.
Test [6] concerns the target Serine/threonine-protein kinase B-raf (Homo sapiens) (UniProt P15056). Kind of test: Inhibition of GST tagged recombinant full length human BRAF expressed in baculovirus at 500 nM by Z'-LYTE assay.
Test [7] concerns the target Tyrosine-protein kinase FRK (Homo sapiens) (UniProt P42685). Kind of test: Inhibition of GST tagged recombinant full length human FRK expressed in baculovirus at 500 nM by Z'-LYTE assay.
For test [8], the target named is Receptor tyrosine-protein kinase erbB-2 (Homo sapiens) (UniProt P04626). Description: Inhibition of His tagged recombinant human ErbB2 cytoplasmic domain (676 to 1255 residues) expressed in baculovirus at 500 nM by Z'-LYTE assay.
Chain of Receptor tyrosine-protein kinase erbB-2 (Homo sapiens) (P04626 whole entry, the tested form may be a part): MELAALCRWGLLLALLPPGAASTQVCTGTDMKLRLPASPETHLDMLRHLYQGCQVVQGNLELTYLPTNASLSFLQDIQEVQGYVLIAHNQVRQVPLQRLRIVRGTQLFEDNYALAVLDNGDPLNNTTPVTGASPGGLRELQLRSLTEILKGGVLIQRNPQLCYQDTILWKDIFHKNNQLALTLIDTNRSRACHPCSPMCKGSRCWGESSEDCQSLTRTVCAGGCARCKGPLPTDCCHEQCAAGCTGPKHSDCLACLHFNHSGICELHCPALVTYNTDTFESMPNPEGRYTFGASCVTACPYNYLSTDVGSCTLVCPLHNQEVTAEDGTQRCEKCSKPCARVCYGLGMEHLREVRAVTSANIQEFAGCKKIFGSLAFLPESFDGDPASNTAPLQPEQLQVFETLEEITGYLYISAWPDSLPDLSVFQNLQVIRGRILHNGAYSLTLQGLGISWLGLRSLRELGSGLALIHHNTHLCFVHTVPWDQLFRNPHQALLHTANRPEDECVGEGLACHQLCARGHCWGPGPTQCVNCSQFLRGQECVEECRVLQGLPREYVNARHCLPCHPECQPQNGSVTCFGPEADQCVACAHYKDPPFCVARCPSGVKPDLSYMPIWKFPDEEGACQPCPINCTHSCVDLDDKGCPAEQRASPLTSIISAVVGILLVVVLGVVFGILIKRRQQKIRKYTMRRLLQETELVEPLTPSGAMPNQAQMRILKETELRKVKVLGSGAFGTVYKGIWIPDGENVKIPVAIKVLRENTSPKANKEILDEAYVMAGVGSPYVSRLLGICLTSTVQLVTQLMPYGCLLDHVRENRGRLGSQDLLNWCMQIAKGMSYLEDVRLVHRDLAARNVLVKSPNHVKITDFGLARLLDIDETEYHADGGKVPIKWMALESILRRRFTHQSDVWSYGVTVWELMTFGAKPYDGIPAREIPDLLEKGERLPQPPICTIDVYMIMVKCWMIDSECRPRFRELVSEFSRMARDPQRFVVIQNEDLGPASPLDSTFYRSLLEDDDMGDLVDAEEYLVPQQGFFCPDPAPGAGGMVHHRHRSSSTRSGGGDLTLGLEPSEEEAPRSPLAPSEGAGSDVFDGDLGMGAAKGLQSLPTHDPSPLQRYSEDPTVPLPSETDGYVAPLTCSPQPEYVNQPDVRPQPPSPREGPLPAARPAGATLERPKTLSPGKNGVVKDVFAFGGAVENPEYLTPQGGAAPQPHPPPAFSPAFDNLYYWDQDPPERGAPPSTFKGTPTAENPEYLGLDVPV
Test [9] has as its target Testis-specific serine/threonine-protein kinase 2 (Homo sapiens) (UniProt Q96PF2). Kind of test: Inhibition of His tagged recombinant full length human STK22B expressed in baculovirus at 500 nM by Z'-LYTE assay.
Test [10] has as its target Protein kinase C beta type (Homo sapiens) (UniProt P05771). Description: Inhibition of recombinant full length human PRKCB1 expressed in baculovirus at 500 nM by Z'-LYTE assay.
For test [11], the target named is Serine/threonine-protein kinase pim-2 (Homo sapiens) (UniProt Q9P1W9). Description: Inhibition of GST tagged recombinant full length human PIM2 expressed in baculovirus at 500 nM by Z'-LYTE assay.
Test [12] addresses Tyrosine-protein kinase Lyn (Homo sapiens) (UniProt P07948). Kind of test: Inhibition of His tagged C-terminal recombinant full length human LYN B expressed in baculovirus at 500 nM by Z'-LYTE assay.
In test [13] the target is Tyrosine-protein kinase ABL1 (Homo sapiens) (UniProt P00519). Description: Inhibition of His tagged recombinant full length human ABL1 expressed in baculovirus at 500 nM by Z'-LYTE assay.
Test [14] addresses Protein kinase C alpha type (Homo sapiens) (UniProt P17252). Description: Inhibition of recombinant full length human PRKCA expressed in baculovirus at 500 nM by Z'-LYTE assay.
Test [15] deals with Proto-oncogene tyrosine-protein kinase Src (Homo sapiens) (UniProt P12931). Description: Inhibition of recombinant full length human C-terminal His-tagged SRC expressed in baculovirus at 500 nM by Z'-LYTE assay.
Chain of Proto-oncogene tyrosine-protein kinase Src (Homo sapiens) (P12931 2-536 limits assumed): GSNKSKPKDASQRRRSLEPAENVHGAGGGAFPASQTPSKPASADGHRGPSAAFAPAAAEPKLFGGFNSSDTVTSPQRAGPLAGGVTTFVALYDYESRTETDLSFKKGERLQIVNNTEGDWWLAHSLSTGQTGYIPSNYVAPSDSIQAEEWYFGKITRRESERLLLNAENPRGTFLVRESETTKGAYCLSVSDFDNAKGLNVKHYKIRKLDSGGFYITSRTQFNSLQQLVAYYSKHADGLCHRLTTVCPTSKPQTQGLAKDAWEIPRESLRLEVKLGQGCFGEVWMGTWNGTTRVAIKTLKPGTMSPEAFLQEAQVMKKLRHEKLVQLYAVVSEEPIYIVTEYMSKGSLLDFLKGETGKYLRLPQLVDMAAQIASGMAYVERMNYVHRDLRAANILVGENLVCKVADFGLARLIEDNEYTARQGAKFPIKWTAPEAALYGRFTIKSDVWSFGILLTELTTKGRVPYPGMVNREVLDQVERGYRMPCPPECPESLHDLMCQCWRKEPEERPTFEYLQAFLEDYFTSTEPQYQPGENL
Test [16] has as its target Proto-oncogene tyrosine-protein kinase receptor Ret (Homo sapiens) (UniProt P07949). Kind of test: Inhibition of GST tagged recombinant human RET cytoplasmic domain (658 to 1114 residues) expressed in baculovirus at 500 nM by Z'-LYTE assay.
The target in test [17] is Vascular endothelial growth factor receptor 1 (Homo sapiens) (UniProt P17948). Kind of test: Inhibition of GST tagged recombinant human FLT1 cytoplasmic domain (781 to 1338 residues) expressed in baculovirus at 500 nM by Z'-LYTE assay.
The target of test [18] is Tyrosine-protein kinase Lyn (Homo sapiens) (UniProt P07948). Kind of test: Inhibition of recombinant full length human N-terminal GST tagged LYN A expressed in insect cells at 500 nM by Z'-LYTE assay.
Chain of Tyrosine-protein kinase Lyn (Homo sapiens) (P07948 2-512 limits assumed): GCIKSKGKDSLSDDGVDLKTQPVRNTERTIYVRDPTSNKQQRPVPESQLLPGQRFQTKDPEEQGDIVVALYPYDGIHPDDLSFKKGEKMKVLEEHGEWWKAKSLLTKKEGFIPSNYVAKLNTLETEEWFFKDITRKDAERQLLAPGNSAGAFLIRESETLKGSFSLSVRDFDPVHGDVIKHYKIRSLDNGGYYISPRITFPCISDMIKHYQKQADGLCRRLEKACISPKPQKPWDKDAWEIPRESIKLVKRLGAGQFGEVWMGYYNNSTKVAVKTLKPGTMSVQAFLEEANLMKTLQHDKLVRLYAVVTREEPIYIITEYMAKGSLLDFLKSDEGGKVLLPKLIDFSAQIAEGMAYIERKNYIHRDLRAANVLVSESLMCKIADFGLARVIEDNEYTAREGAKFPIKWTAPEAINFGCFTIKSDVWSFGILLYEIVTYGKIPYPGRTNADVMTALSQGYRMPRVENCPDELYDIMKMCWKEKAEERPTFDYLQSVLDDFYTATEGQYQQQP
The target of test [19] is Vascular endothelial growth factor receptor 3 (Homo sapiens) (UniProt P35916). Kind of test: Inhibition of GST tagged recombinant human FLT4 cytoplasmic domain (800 to 1297 residues) expressed in baculovirus at 500 nM by Z'-LYTE assay.

Chain of Protein kinase C beta type (Homo sapiens) (P05771 2-671 limits assumed): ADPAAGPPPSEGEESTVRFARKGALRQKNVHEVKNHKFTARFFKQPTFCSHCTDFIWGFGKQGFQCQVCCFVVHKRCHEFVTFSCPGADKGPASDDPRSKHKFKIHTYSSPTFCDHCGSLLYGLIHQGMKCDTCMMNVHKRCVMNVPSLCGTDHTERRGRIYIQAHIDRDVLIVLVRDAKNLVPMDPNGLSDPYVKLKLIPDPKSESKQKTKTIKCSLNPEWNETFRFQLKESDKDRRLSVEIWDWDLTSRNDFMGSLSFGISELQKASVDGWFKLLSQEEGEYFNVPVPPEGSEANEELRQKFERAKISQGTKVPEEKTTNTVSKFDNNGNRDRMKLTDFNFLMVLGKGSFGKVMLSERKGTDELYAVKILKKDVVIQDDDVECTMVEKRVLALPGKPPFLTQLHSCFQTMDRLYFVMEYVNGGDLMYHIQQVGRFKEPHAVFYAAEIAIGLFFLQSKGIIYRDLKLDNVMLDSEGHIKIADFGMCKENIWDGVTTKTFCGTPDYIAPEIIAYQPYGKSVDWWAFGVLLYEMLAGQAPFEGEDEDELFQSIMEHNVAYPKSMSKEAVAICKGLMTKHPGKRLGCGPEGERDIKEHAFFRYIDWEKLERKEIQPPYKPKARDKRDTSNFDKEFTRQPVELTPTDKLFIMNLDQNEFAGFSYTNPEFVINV
Chain of Tyrosine-protein kinase FRK (Homo sapiens) (P42685 whole entry, the tested form may be a part): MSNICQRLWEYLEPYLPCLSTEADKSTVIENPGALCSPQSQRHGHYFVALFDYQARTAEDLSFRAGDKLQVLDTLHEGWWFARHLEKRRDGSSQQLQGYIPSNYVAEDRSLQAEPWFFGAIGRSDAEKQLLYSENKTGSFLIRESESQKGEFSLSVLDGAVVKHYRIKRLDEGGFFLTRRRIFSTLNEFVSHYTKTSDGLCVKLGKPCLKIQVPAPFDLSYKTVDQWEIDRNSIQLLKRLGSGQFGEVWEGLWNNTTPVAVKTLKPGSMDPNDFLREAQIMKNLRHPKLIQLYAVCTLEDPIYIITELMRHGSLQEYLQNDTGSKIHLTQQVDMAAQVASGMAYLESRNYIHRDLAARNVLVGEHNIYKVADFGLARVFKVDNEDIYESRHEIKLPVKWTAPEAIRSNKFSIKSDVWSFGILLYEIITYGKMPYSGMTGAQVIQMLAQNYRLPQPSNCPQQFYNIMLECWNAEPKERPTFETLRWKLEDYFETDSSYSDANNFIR
Chain of Testis-specific serine/threonine-protein kinase 2 (Homo sapiens) (Q96PF2 whole entry): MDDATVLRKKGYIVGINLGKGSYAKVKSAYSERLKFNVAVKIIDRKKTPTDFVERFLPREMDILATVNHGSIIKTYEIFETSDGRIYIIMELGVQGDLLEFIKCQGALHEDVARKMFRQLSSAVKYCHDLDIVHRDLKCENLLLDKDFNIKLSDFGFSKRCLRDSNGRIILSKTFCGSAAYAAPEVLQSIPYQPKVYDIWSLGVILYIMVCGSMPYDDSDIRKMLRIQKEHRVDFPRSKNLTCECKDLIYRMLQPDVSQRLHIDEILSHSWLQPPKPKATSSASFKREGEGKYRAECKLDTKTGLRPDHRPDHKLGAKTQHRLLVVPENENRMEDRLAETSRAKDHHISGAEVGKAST
Chain of Tyrosine-protein kinase CSK (Homo sapiens) (P41240 2-450 limits assumed): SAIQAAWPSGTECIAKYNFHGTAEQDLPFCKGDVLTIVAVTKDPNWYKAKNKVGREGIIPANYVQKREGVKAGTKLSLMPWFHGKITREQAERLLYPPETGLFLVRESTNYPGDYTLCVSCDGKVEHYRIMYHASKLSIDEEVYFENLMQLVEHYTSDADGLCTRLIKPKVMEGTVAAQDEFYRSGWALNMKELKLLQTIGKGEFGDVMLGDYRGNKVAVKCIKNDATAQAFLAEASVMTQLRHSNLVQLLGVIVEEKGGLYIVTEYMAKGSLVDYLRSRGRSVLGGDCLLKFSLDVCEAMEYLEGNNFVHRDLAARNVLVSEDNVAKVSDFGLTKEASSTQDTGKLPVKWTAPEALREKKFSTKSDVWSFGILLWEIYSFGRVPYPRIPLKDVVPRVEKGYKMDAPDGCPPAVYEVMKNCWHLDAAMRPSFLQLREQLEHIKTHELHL

Regarding `C[C@@H](Nc1ncnc2oc(-c3ccc(NCCN(C)C)cc3)cc12)c1ccccc1`, the inhibition is 26% in [1]; -8% in [2]; 12% in test [3]; 19% in test [4]; 8% in test [6]; 31% in [7]. For the same compound, the inhibition in test [8] is 23%; in test [9], -1%; in [10], -10%; in test [11], -3%; in test [12] it was 41%; in [13], 37%. Besides, the inhibition in test [14] is -9%; in test [15], 12%; in test [16] it was 11%; in test [17], -2%; in test [18], 35%; in [19] it was 4%. Also, in test [5], the concentration for half-maximal inhibition (IC50) came to 0.4 nM.
On to `C[C@@H](Nc1ncnc2oc(-c3ccc(NCCN4CCCCC4)cc3)cc12)c1ccccc1`, for which the inhibition in [1] was determined as 34%; in [3] it was 8%; in test [4], 7%; in test [6], 9%; in [7] it was 21%; in test [8] it was 15%. Also, the inhibition in [9] is 2%; in [12], 46%; in [13], 30%; in [15] it was 17%; in test [16], 11%; in test [17], 1%. Further, the inhibition came to 37% in [18] and 4% in test [19]. Besides, the IC50 in [5] came to 0.6 nM.
With `C#Cc1cccc(Nc2ncnc3cc(OCCOC)c(OCCOC)cc23)c1`, the inhibition in [10] is -2%; in test [14] it was 2%.

A word on the inhibition: it is the relative decrease from the control value, in per cent. As usually defined, the IC50 is the concentration that gives 50% inhibition.
